Assay results published in article PMC11359809, “Probing the molecular basis for signal transduction through the Zinc-Activated Channel (ZAC)” (Biochemical pharmacology, 2021).
Numbering of substitutions follows the chain as printed. Where “and” joins values, the source holds several entries; their conditions need not be identical. Equal entries are not always repeated.

Tests used:
WT ZAC = target: T1, WT ZAC (Homo sapiens, UniProt Q401N2, A152T); test: TEVC in Xenopus oocytes expressing WT ZAC; assay type: cell-based
T1 construct: expressed in transfected cells; host or cells: Xenopus oocytes injected with cRNA (pUNIV vector)
T1 sequence (Q401N2 26-412 A152T): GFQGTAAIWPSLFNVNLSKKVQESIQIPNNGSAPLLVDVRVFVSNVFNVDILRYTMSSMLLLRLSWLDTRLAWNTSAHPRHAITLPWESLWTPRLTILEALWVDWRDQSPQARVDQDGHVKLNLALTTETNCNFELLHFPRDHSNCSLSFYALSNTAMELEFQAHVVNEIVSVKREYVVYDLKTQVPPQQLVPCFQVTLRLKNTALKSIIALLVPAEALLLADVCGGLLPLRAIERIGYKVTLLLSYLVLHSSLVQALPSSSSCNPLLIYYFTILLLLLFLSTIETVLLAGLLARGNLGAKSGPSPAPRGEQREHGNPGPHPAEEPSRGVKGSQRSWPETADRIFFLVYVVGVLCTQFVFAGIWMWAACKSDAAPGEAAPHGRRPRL
Description: (§1) The recordings were performed at room temperature.
(§2) Analysis of the data from the TEVC recordings were performed using Clampfit software version 10.5 (Molecular Devices, Crawley, UK) and GraphPad Prism version 7.0c (GraphPad Software, La Jolla, CA). Unless otherwise stated, the inward currents induced by agonists in oocytes were normalized to the maximal response elicited by a specific agonist (agonist Imax) on each oocyte. Concentration-response and concentration-inhibition curves were fitted in GraphPad Prism by nonlinear regression using the equation for sigmoidal dose-response with variable slope. Each data point represents the mean ± S.E.M. value of recordings performed on at least five oocytes in total from at least two different batches. For the data where statistical analysis was performed, a one-way ANOVA was used. The null hypothesis was rejected at P < 0.05, and the differences between the means were analyzed by Tukey’s multiple comparisons test.

ZAC^H120L = test: TEVC in oocytes, ZAC H120L mutant; assay type: cell-based, human; conditions: agonist
Description: as §1
as §2, with “For the data where statistical analysis was performed, a one-way ANOVA was used.” left out
(§3) The putative involvement of candidate residues in Clusters 1, 2, 3 and 4 in Zn^2+ binding to ZAC was investigated in by an elaborate alanine mutagenesis scanning. […] The determined IpH 4.0 value was used in part as a control and in part to enable the distinction of ZAC mutants non-responsive to Zn^2+ due to elimination of their ability to bind the metal ion from those where the mutation had eliminated cell surface expression and/or disrupted overall functionality of the receptor complex. […]

ZAC^H166A = target: T2, ZAC^H166A (Homo sapiens, UniProt Q401N2, A152T/H190A); test: TEVC in oocytes, ZAC H166A mutant; assay type: cell-based
T2 construct: expressed in transfected cells; host or cells: Xenopus oocytes injected with cRNA (pUNIV vector)
T2 sequence (Q401N2 26-412 A152T/H190A): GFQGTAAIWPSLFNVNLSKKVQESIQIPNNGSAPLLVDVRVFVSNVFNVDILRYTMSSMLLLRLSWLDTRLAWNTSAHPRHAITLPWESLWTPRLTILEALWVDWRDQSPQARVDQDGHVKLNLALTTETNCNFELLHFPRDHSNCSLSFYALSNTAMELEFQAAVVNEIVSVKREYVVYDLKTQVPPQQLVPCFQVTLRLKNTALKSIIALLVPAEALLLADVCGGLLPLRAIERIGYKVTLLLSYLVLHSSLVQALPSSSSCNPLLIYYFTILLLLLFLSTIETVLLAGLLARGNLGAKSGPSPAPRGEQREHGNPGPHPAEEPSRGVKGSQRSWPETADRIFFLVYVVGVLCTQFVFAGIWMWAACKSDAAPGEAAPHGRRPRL
Description: as §1
as §2, with “For the data where statistical analysis was performed, a one-way ANOVA was used.” left out
as §3

ZAC^E24A = target: T3, ZAC^E24A (Homo sapiens, UniProt Q401N2, A152T/E48A); test: TEVC in oocytes, ZAC E24A mutant; assay type: cell-based; conditions: agonist; n = 5
T3 construct: expressed in transfected cells; host or cells: Xenopus oocytes injected with cRNA (pUNIV vector)
T3 sequence (Q401N2 26-412 E48A/A152T): as the sequence (Q401N2 26-412 A152T/H190A) above, with E23A, A165H counted along it
Description: as §1
as §2, with “For the data where statistical analysis was performed, a one-way ANOVA was used.” left out
as §3

ZAC^L9′V = target: T4, ZAC^L9′V (Homo sapiens, UniProt Q401N2, A152T/L270V); test: TEVC in oocytes, ZAC L9′V mutant; assay type: cell-based; conditions: agonist; n = 8
T4 construct: expressed in transfected cells; host or cells: Xenopus oocytes (cRNA injection, pUNIV vector)
T4 sequence (Q401N2 26-412 A152T/L270V): T1 sequence (Q401N2 26-412 A152T) with L245V
Description: as §1, §2

ZAC^L9′I = target: T5, ZAC^L9′I (Homo sapiens, UniProt Q401N2, A152T/L270I); test: TEVC in oocytes, ZAC L9′I mutant; assay type: cell-based; conditions: agonist; n = 8
T5 construct: expressed in transfected cells; host or cells: Xenopus oocytes (cRNA injection, pUNIV vector)
T5 sequence (Q401N2 26-412 A152T/L270I): T1 sequence (Q401N2 26-412 A152T) with L245I
Description: as §1, §2

ZAC^FPM/hα1-Gly = test: TEVC in oocytes, Cys-loop modified chimera ZAC^FPM/hα1-Gly; assay type: cell-based, human; conditions: data not shown
Description: as §1
To probe the effects of exchanges of regions involved in the ECD/TMD cross-talk between the two CLRs fused in a chimera on its functionality, we constructed 12 additional chimeras, three for each of the four original chimeras (Fig. 1A). Inspired by the similar modifications that have been introduced in a functional GLIC/hα1-Gly chimera, we swapped one or both of two specific regions: the three-residue FPX (Phe-Pro-X) motif in the Cys-loop of the ECD (FPR, FPF and […] in ZAC, m5-HT3A and hα1 GlyR, respectively), which is known to protude into proximity of the M2-M3 linker during the ECD/TMD cross-talk, and the extracellular C-terminus of the TMD, which differs substantially in both amino acid sequence and length between ZAC and the two classical CLRs combined with it in the chimeras (Fig. 4B). […] In light of this, it was not surprising that the four chimeras comprising exchanges of both the FPX motif and the C-terminus also were non-functional (data not shown).

[1] = agonist, oocytes of the Cluster 3 recordings, n = 12
[2] = agonist, parallel recordings with Cluster 4 mutant, n = 5
[3] = agonist, section 3.1 recordings, n = 8
[4] = sustained (4 min) application of 10 mM Zn^2+

[Cl-].[Cl-].[Zn+2] [Zn^2+, ZnCl2]
Imax (current amplitude evoked by saturating agonist) (WT ZAC; 10 mM Zn^2+, mean ± S.E.M., n = 19): 0.58 ± 0.10 μA
EC50 (WT ZAC; agonist, a couple of oocyte batches with 5–10-fold higher potency (Cluster 1 double/triple mutant experiments)): ~100 µM
nH ± S.E.M. (Hill slope) (WT ZAC; agonist, n = 8): 1.5 ± 0.2
EC50 (WT ZAC; agonist, normal potency in the vast majority of oocyte batches in this work and in two other studies): 500 to 1000 µM
EC50 (WT ZAC; [1]): 98 µM
pEC50 ± S.E.M. (WT ZAC; [1]): 4.01 ± 0.03
EC50 (WT ZAC; [2]): 310 µM
pEC50 ± S.E.M. (WT ZAC; [2]): 3.51 ± 0.05
EC50 (WT ZAC; [3]): 500 µM
pEC50 ± S.E.M. (WT ZAC; [3]): 3.30 ± 0.04
Iresidual, 4 min (WT ZAC; [4]): 21 % of Ipeak and 21 ± 3 % of Ipeak
Δtstart-to-peak (WT ZAC; [4]): 4.8 ± 0.5 s
fitted EC50 relative to WT ZAC (higher) (ZAC^H120L): ~ 3 fold
agonist properties compared to WT ZAC (ZAC^H166A): WT-like agonist properties
EC50 (ZAC^E24A): 71 µM
pEC50 ± S.E.M. (ZAC^E24A): 4.15 ± 0.04
EC50 (ZAC^L9′V): 13 µM
nH ± S.E.M. (Hill slope) (ZAC^L9′V): 0.7 ± 0.3
pEC50 ± S.E.M. (ZAC^L9′V): 4.88 ± 0.22
EC50 (ZAC^L9′I): 24 µM
nH ± S.E.M. (Hill slope) (ZAC^L9′I): 0.8 ± 0.2
pEC50 ± S.E.M. (ZAC^L9′I): 4.62 ± 0.15
concentration-response relationship compared to ZAC/hα1-Gly (ZAC^FPM/hα1-Gly): not significantly different
